In ChEMBL document CHEMBL1137324, “Novel selective orally active CRTH2 antagonists for allergic inflammation developed from in silico derived hits” (J Med Chem, 2006):

Legend:
[1] = target: T1, Prostaglandin D2 receptor 2 (Homo sapiens, UniProt Q9Y5Y4); experiment: Displacement of [3H]PGD2 from human CRTH2 receptor expressed in HEK293 cells; format: cell-based
T1 sequence (Q9Y5Y4 whole entry): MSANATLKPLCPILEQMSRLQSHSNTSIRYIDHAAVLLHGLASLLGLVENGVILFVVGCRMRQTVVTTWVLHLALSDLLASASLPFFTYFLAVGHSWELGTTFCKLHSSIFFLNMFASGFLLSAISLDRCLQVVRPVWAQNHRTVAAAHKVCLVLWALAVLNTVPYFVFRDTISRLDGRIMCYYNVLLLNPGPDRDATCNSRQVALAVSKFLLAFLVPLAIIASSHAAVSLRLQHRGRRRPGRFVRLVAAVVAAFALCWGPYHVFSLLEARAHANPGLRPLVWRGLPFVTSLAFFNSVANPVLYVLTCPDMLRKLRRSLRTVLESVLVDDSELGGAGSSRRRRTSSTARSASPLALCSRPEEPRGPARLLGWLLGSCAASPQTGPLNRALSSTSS

[2] = target: T1, Prostaglandin D2 receptor 2; experiment: Antagonist activity against CRTH2 receptor measured as inhibition of PGD2-induced beta-arrestin translocation in HEK293 cells by BRET assay; format: functional, cell-based
Mus musculus = experiment: Inhibition of peribronchial eosinophilia in BALB/c mouse at 100 mg/kg, po relative to control; format: functional

Row | Structure (SMILES) | IC50 [1] [nM] | IC50 [2] [nM] | inhibition in vivo at 100 mg/kg (Mus musculus) [%]
1 | COc1ccc(-c2cnnc(N/N=C/c3ccccc3OCC(=O)O)n2)cc1 | 1580 | > 100000 | 
2 | CC(C)(C)c1cc(Br)ccc1OCC(=O)O | 61 | 423 | 
3 | C[C@]12CCC(=O)C=C1CC[C@@H]1[C@@H]2[C@@H](O)C[C@@]2(C)[C@H]1CC[C@]2(O)C(=O)CO [HYDROCORTISONE] |  |  | 94
4 | O=C(O)COc1ccccc1C(=O)c1cnn(-c2ccccc2)c1 | 510 | 5350 | 
5 | O=C(O)COc1ccc(Br)cc1/C=N/Nc1ccccn1 | 255 | 3490 | 
6 | O=C(O)COc1ccc(Br)cc1C(=O)c1ccccc1 | 53 | 437 | 
7 | Cc1ccc(NCC(=O)N/N=C/c2ccccc2OCC(=O)O)cc1 | 3660 | 60200 | 
8 | O=C(O)COc1ccc(Br)cc1C(=O)c1ccno1 | 391 | 2650 | 
9 | CCOC(=O)COc1ccc(Br)cc1C(=O)c1cnn(-c2ccccc2)c1 | 165 | 3000 | 
10 | O=Cc1ccccc1OCC(=O)O | 1970 | 50000 | 
11 | COc1ccc(OCC(=O)O)c(C(=O)c2cnn(-c3ccccc3)c2)c1 | 151 | 4200 | 
12 | O=C(O)COc1ccccc1/C=N/NC(=O)Cn1cnc2ccccc21 | 12800 | 81700 | 
13 | O=C(O)COc1ccc(Br)cc1/C=N/Nc1cccc2cccnc12 | 54 | 643 | 
14 | O=C(O)COc1ccc(Br)cc1/C=N/Nc1nncc(-c2ccccc2)n1 | 89 | 3210 | 
15 | O=C(O)COc1ccccc1/C=N/NC(=O)COc1ccc(Cl)cc1Cl | 555 | 6320 | 
16 | Cc1cc(C(=O)N/N=C/c2ccccc2OCC(=O)O)[nH]n1 | 11200 | > 100000 | 
17 | O=C(O)COc1ccc(F)cc1C(=O)c1cnn(-c2ccccc2)c1 | 108 | 1320 | 
18 | O=C(O)COc1ccc(Br)cc1CO | 886 | 6870 | 
19 | CC(=O)c1cc(Br)ccc1OCC(=O)O | 510 | 4520 | 
20 | O=Cc1cc(Br)ccc1OCC(=O)O | 124 | 481 | 

More lines, in order of falling IC50 [1], values ahead:

Row | IC50 [1] [nM] | IC50 [2] [nM] | Structure (SMILES) | inhibition in vivo at 100 mg/kg (Mus musculus) [%]
21 | 48 | 587 | Cc1ccc(OCC(=O)O)c(C(=O)c2cnn(-c3ccccc3)c2)c1 | 
22 | 47 | 236 | O=C(O)COc1ccc([N+](=O)[O-])cc1C(=O)c1cnn(-c2ccccc2)c1 | 
23 | 42 | 485 | O=C(O)COc1ccc(-c2ccccc2)cc1C(=O)c1cnn(-c2ccccc2)c1 | 
24 | 37 | 448 | O=C(O)COc1ccc(-c2ccc(Cl)cc2)cc1C(=O)c1cnn(-c2ccccc2)c1 | 
25 | 15 | 185 | O=C(O)COc1ccc(Cl)cc1C(=O)c1cnn(-c2ccccc2)c1 | 
26 | 13 | 147 | O=C(O)COc1ccc(-c2cc(F)cc(F)c2)cc1C(=O)c1cnn(-c2ccccc2)c1 | 
27 | 3.6 | 53 | COc1ccc(-n2cc(C(=O)c3cc(Br)ccc3OCC(=O)O)cn2)cc1 | 
28 | 3.4 | 31 | O=C(O)COc1ccc(Br)cc1C(=O)c1cnn(-c2cccc(Br)c2)c1 | 
29 | 1.9 | 12 | O=C(O)COc1ccc(Br)cc1C(=O)c1cnn(-c2ccccc2Br)c1 | 
30 | 1.5 | 17 | O=C(O)COc1ccc(Br)cc1C(=O)c1cnn(-c2ccc(Cl)cc2)c1 | 
31 | 1.4 | 13 | O=C(O)COc1ccc(Br)cc1C(=O)c1cnn(-c2ccc(Br)cc2)c1 | 
